Legend:
[1] = target: T1, GTP-loaded KRAS4b (amino acids 1-169) G12C/C118S protein (Homo sapiens, UniProt P01116, C118S/G12C); experiment: Covalent cysteine 12 modification by MALDI-TOF MS, GTP-loaded KRAS G12C; type: binding; conditions: 15 minutes reaction time point
T1 construct: KRAS4b (amino acids 1-169) G12C/C118S protein; made in house
Outline: (§1)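 Protein (1 μM) was incubated with compound at a 1:2.5 protein:compound ratio in 20 mM HEPES, 150 mM NaCl, 1 mM MgCl2, pH 7.3, at room temperature in the dark. After 15 min, samples were mixed into sinapinic acid matrix and analysed by linear-mode MALDI-TOF. Modification is adduct peak height over summed unmodified plus adduct heights.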

pERK in NCI-H358 cells = experiment: Cell-based pERK HTRF assay (pERK inhibition in H358 cells); conditions: 30 min incubation
Outline: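 NCI-H358 cells were seeded at 4×10^4 cells/well in RPMI/10% FBS, then treated next day for 30 min at 0.25% DMSO (9-point, 3-fold series from 75 μM). Lysates were read by HTRF (d2/Eu cryptate antibody pair, 615 nm emission) after 4–24 h at room temperature to give pERK IC50.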

[2] = target: T2, GppNHp-loaded KRAS4b (amino acids 1-169) G12C/C118S protein (Homo sapiens, UniProt P01116, C118S/G12C); experiment: Covalent cysteine 12 modification by MALDI-TOF MS, GppNHp-loaded KRAS G12C; type: binding; conditions: 15 minutes reaction time point
T2 construct: KRAS4b (amino acids 1-169) G12C/C118S protein; made in house
Outline: as §1

[3] = target: T3, GDP-loaded KRAS4b (amino acids 1-169) G12C/C118S protein (Homo sapiens, UniProt P01116, C118S/G12C); experiment: Covalent cysteine 12 modification by MALDI-TOF MS, GDP-loaded KRAS G12C; type: binding; conditions: 15 minutes reaction time point
T3 construct: KRAS4b (amino acids 1-169) G12C/C118S protein; made in house
Outline: as §1

Row | SMILES | GTP-KRAS G12C percent of modification [1] | IC50 (pERK in NCI-H358 cells; Homo sapiens, NCI-H358, 0.5 h) [nM] | GppNHp-KRAS G12C percent of modification [2] | GDP-KRAS G12C percent of modification [3] | IC50 (pERK in NCI-H358 cells) [nM]
1 | C=CC(=O)N1CC[C@@H](N(CC)c2nc(OC[C@@]34CCCN3C[C@H](F)C4)nc3c(F)c(-c4ccc(F)c5sc(N)c(C#N)c45)ccc23)[C@H]1C [Compound 17, 4-(4-(((2R,3R)-1-acryloyl-2-methylpyrrolidin-3-yl)(ethyl)amino)-8-fluoro-2-(((2R,7aS)-2-fluorotetrahydro-1H-pyrrolizin-7a(5H)-yl)methoxy)quinazolin-7-yl)-2-amino-7-fluorobenzo[b]thiophene-3-carbonitrile] | A (percent of modification ≥70%) | < 100 | A (percent of modification ≥70%) | A (percent of modification ≥70%) | 
2 | C=CC(=O)N1CC[C@@H](N(C)c2nc(OC[C@@]34CCCN3C[C@H](F)C4)nc3cc(-c4ccc(F)c5sc(N)c(C#N)c45)c(F)cc23)[C@@H]1C [Compound 31] | C (10%≤percent of modification <50%) | < 100 | A (percent of modification ≥70%) | A (percent of modification ≥70%) | 
3 | C=CC(=O)N1CC[C@@H](N(C)c2nc(OC[C@@]34CCCN3C[C@H](F)C4)nc3c(F)c(-c4ccc(F)c5sc(N)c(C#N)c45)c(C(F)(F)F)cc23)[C@H]1CC [Compound 18] | C (10%≤percent of modification <50%) | < 100 | B (50≤percent of modification <70%) | B (50≤percent of modification <70%) | 
4 | C=CC(=O)N1CC[C@@H](N(CC)c2nc(OC[C@@H]3CCCN3C)nc3c(F)c(-c4nc(N)cc(C)c4C(F)(F)F)c(C(F)(F)F)cc23)[C@H]1C [Compound 155] | C (10%≤percent of modification <50%) | < 100 | C (10%≤percent of modification <50%) | C (10%≤percent of modification <50%) | 
5 | C=CC(=O)N1C[C@H](C)N(c2nc(OC[C@@]34CCCN3C[C@H](F)C4)nc3c(F)c(-c4ccc(F)c5sc(N)c(C#N)c45)c(Cl)cc23)C[C@H]1C (atropisomer, axis not shown) [Compound 103] | D (percent of modification <10%) |  | D (percent of modification <10%) | D (percent of modification <10%) | 100 to 1000
6 | C=CC(=O)N1C[C@H](C)N(c2nc(OC[C@@]34CCCN3C[C@H](F)C4)nc3c(F)c(-c4ccc(F)c5sc(N)c(C#N)c45)c(Cl)cc23)C[C@H]1C (atropisomer, axis not shown) [Compound 102] | A (percent of modification ≥70%) | < 100 | A (percent of modification ≥70%) | A (percent of modification ≥70%) | 
7 | C=CC(=O)N1CC[C@@H](N(C)c2nc(OC[C@@H]3CCCN3C)nc3c(F)c(-c4ccc(F)c5sc(N)c(C#N)c45)c(Cl)cc23)[C@H]1C (atropisomer, axis not shown) [Compound 119] | D (percent of modification <10%) |  | D (percent of modification <10%) | D (percent of modification <10%) | > 1000
8 | C=CC(=O)N1CC[C@@H](N(CC)c2nc(OC[C@]34CCCN3C[C@H](OC)C4)nc3c(F)c(-c4ccc(F)c5sc(N)c(C#N)c45)ccc23)[C@H]1C [Compound 169] | A (percent of modification ≥70%) | 100 to 1000 | A (percent of modification ≥70%) | A (percent of modification ≥70%) | 
9 | C=CC(=O)N1CC[C@@H](N(C)c2nc(OC[C@@]34CCCN3C[C@H](F)C4)nc3c(F)c(-c4ccc(F)c5sc(N)c(C#N)c45)ccc23)[C@@H]1CC [Compound 23] | C (10%≤percent of modification <50%) | < 100 | C (10%≤percent of modification <50%) | A (percent of modification ≥70%) | 
10 | C=CC(=O)N1CC[C@@H](N(C)c2nc(OC[C@@H]3CCCN3C)nc3c(F)c(-c4ccc(F)c5sc(N)c(C#N)c45)c(C(F)(F)F)cc23)[C@H]1C (atropisomer, axis not shown) [Compound 131] | A (percent of modification ≥70%) |  | A (percent of modification ≥70%) | A (percent of modification ≥70%) | < 100
